We go through two compounds from patent US5338845A, “Aspergillus species, cyclic dimeric dipeptide derivative substance P antagonist biosynthetic products thereof, and process for preparation thereof” (Sterling Winthrop Inc., priority 1992, dated 1994).

Data set [1] deals with T1, NK2 receptor (Homo sapiens, UniProt P21452).
T1 construct: NK2 receptor in both rat duodenum and human urinary bladder membranes; from tissue; host or cells: human urinary bladder membranes
T1 sequence (P21452 1-398): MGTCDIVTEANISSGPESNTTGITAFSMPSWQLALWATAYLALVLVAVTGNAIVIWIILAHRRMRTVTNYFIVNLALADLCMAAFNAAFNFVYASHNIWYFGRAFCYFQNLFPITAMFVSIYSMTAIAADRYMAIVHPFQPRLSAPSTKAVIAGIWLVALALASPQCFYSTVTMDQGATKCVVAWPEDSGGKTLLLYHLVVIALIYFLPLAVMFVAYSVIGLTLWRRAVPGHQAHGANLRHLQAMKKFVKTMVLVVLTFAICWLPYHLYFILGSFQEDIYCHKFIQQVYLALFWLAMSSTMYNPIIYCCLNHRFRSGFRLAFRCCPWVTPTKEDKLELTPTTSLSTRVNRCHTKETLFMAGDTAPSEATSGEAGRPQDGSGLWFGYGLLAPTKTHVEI
The experiment in a line: 125I-neurokinin A binding to the NK2 receptor in human urinary bladder membranes. The conditions noted are these: read-out: Ki, inhibition of 125I-neurokinin A binding to the NK2 receptor.

In a further data set the target is T2, NK3 (Cavia porcellus, UniProt P30098).
T2 construct: tested in a guinea pig forebrain membrane preparation; from tissue; host or cells: guinea pig forebrain membrane preparation
T2 sequence (P30098 1-440): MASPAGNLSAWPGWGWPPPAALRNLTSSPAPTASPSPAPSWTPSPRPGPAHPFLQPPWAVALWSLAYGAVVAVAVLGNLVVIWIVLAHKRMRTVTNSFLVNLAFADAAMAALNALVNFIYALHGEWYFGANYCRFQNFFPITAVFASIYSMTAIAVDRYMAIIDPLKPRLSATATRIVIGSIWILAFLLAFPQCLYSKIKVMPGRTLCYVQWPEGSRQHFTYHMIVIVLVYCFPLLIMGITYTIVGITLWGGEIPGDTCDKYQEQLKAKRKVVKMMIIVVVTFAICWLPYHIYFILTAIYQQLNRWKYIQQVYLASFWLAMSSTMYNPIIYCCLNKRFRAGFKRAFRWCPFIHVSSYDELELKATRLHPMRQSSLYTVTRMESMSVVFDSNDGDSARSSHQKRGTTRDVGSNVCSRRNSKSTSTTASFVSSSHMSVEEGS
The experiment in a line: NK3 selective ligand 3H-senktide binding, guinea pig forebrain membrane preparation. The note with it: read-out: IC50 against NK3 selective ligand 3H-senktide.

For data set [2], the target named is T3, NK2 receptor (Rattus norvegicus, UniProt P16610).
T3 sequence (P16610 1-390): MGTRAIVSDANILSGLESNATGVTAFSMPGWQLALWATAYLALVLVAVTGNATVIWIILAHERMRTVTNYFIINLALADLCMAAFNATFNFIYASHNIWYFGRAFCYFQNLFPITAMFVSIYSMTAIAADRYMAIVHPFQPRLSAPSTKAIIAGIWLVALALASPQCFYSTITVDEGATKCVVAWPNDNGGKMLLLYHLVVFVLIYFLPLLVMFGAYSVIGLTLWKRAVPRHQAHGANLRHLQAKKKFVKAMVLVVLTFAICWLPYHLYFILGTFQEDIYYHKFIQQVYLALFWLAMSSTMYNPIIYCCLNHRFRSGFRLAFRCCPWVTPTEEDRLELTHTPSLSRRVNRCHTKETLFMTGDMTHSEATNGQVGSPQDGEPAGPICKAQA
The experiment in a line: 125I-neurokinin A binding to the NK2 receptor in rat duodenum membranes. Also on record: from tissue. The note with it: read-out: Ki, inhibition of 125I-neurokinin A binding to the NK2 receptor.

For data set [3], the target named is T3, NK2 receptor. The experiment in a line: Eledoisin-induced contractility in rat vas deferens model. The data set is classed as cell-based. On the set-up: from tissue; host or cells: rat vas deferens (organ preparation). The conditions noted are these: functional antagonism at the NK2 receptor, read-out: IC50, inhibition of eledoisin-induced contractility.
The target in data set [4] is T4, NK1 (Homo sapiens, UniProt P25103). The experiment in a line: Substance P NK1 receptor binding, 125I-Bolton Hunter Substance P, human astrocytoma cells (U-373 MG). Also on record: host or cells: U-373 MG human astrocytoma cells (intact monolayer). The note with it: for IC50: comparative test with ditryptophenaline, read-out: IC50, Substance P antagonist activity in human astrocytoma cells. Here is the method:
(§1) As stated above the compounds of Formula I are useful as Substance P antagonists and therefore as analgesic and/or antiinflammatory agents. Substance P antagonist NK1 receptor binding activity was determined using guinea pig submaxillary gland tissue and human astrocytoma cells.
Human astrocytoma cells (U--373 MG, ATCC No. HTB 17) were cultured in 75-mL flasks in an aqueous medium containing horse serum (heat inactivated, 10%), minimum essential amino acids (2%), minimum essential vitamin solution (2%), and an aqueous solution of penicillin (10,000 units/mL) and streptomycin (10,000 μg/mL) (Penn-Strep, 2%), which was sterilized by filtration through a disposable filter (Nalgene, VWR Cat. No. 28199-585). The medium was replaced twice weekly. Cells were passaged (1:4 split) by removing the medium and adding aqueous trypsin (0.25%, 8 mL/flask). The flasks were swirled for 30 seconds, the aqueous trypsin was removed, and the cells were incubated for 5 minutes at room temperature, then washed twice with fresh medium (7 mL each time). Poly-D-lysine solution (50 μg/mL in aqueous phosphate saline buffer, 0.25 mL) was added to each well of a sterile 96-well […] plate (Corning), which was then incubated at room temperature for 40 minutes. The poly-D-lysine solution was removed, each well was washed twice with aqueous phosphate saline buffer (0.25 mL), cells were added (0.2 mL/well), and the plate was incubated at 37° C. for two days in an oxygen-carbon dioxide (95:5) atmosphere to provide a monolayer of 1.4-1.9×10^4 cells per well.
To test for receptor binding the aqueous phosphate saline buffer was removed from each well, the cell monolayer was washed three times with assay buffer (aqueous 2-[4-(2-hydroxyethyl)-1-piperazinyl]ethanesulfonic acid [HEPES], 25 mM; potassium chloride, 5.8 mM; monopotassium phosphate, 2.2 mM; sodium chloride, 115 mM; magnesium sulfate, 0.6 mM; calcium chloride, 1.8 mM; bovine serum albumin, 1%; glucose, 5 mM; thiorphan, 1 μM; and bacitracin, 40 μg/mL; pH adjusted to 7.40 with dilute hydrochloric acid; 0.25 mL each time). To each well was then added assay buffer alone (0.1 mL) or a mixture (0.1 mL) with assay buffer as diluent containing ^125 I-Bolton Hunter Substance P (Amersham, Inc., Arlington Heights, Ill.; 0.1 nanomole) and test compound in amount to give the desired concentration thereof or, to determine nonspecific binding, unlabelled Substance P (0.1 micromole) and the plate was incubated at 25° C. for 90 minutes. […] The radioactivity of part (100 μL) of the detachment mixture was measured in a gamma ray counter (Packard Cobra). Kd and IC50 values were determined and a Ki value was calculated for each test compound as described above.

Data set [5] deals with T5, NK1 (Cavia porcellus, UniProt P30547). The experiment in a line: NK1 functional assay: Substance P-induced contractility in the guinea pig ileum. The data set is classed as cell-based. On the set-up: Substance P-induced contractility in the guinea pig ileum; from tissue; host or cells: guinea pig ileum (organ preparation).
Data set [6] addresses T4, NK1. The experiment in a line: NK1 functional assay: Substance P-induced 45Ca2+ efflux from human astrocytoma U373MG cells. On the set-up: Human astrocytoma cells (U--373 MG, ATCC No. HTB 17) were cultured in 75-mL flasks; host or cells: U-373 MG human astrocytoma cells (intact monolayer). The conditions noted are these: read-out: IC50, inhibition of Substance P-induced 45Ca2+ efflux. Format: cell-based.

The target of data set [7] is T5, NK1. Kind of data set: Substance P NK1 receptor binding, tritiated Substance P, guinea pig submaxillary gland tissue. On the set-up: the resulting submaxillary gland tissue preparation (1.0 to 1.5 mL) was stored at -70° C; tissue Pel Freeze Biologicals; host or cells: guinea pig submaxillary gland homogenate. The note with it: tritiated Substance P 0.75 nM; Ki calculated from IC50 by Cheng-Prusoff; read-out: Ki Guinea Pig Submaxillary Gland Tissue (Substance P antagonist potency). Here is the method:
as §1
Submaxillary glands from both sexes of Hartley guinea pigs were obtained from Pel Freeze Biologicals, Rogers, Arkansas by overnight express in a plastic bag kept cold in wet ice. […] Using serum bovine albumin as the standard the protein yield was determined by the Bradford method (Bio-Rad, Richmond, Calif.) to be 7-8 mg/mL or about 250 mg from 50 submaxillary glands.
To test for receptor binding a sample of the submaxillary gland tissue preparation was thawed on ice and rehomogenized with a glass homogenizer (Dounce). […] The residue on the filter was washed three times with tromethamine buffer (3 mL each time) and its radioactivity was measured in a liquid scintillation counter (Beckman LS5000) (x=number of counts per minute with test compound, y=number of counts per minute without test compound). […] The dissociation constant (Kd) for receptor binding was determined by varying the concentration of tritiated Substance P. The following calculations were made: […]

The conditions of data set [8]: quoted from Springer et al., Tetrahedron Letters 1977; cited from earlier work.

T4 sequence (P25103 whole entry): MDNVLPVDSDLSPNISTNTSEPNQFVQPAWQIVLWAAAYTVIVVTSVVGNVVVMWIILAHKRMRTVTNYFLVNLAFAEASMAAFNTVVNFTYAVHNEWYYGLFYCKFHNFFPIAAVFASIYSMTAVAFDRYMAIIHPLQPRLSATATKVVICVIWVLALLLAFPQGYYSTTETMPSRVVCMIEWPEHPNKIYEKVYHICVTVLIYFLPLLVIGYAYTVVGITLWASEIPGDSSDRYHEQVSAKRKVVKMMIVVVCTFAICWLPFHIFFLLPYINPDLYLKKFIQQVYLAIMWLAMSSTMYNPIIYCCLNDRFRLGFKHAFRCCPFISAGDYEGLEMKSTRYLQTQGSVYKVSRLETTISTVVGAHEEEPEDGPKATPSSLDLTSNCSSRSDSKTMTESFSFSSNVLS
T5 sequence (P30547 whole entry): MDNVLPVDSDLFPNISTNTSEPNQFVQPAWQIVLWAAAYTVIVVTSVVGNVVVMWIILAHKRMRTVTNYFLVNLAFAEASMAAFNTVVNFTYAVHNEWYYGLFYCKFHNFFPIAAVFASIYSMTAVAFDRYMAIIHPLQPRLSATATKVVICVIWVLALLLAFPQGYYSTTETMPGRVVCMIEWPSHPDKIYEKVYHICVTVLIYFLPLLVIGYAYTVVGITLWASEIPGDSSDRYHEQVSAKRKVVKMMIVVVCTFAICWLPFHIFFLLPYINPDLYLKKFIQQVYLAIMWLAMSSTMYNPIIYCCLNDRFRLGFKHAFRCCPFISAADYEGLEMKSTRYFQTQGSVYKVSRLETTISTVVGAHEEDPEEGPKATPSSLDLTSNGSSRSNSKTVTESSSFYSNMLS

For the compound `O=C1N[C@@H](Cc2ccccc2)C(=O)N2[C@H]3Nc4ccccc4C3([C@]34C[C@H]5C(=O)N[C@@H](Cc6ccccc6)C(=O)N5[C@H]3Nc3ccccc34)C[C@@H]12` (stereo partly drawn) [Compound I-1], the Ki at NK2 receptor [1] was 720 nM; on NK2 receptor [2], 260 nM; at NK1 [4] (U-373 MG cells, 125I-Bolton Hunter Substance P, Ki calculated from IC50, read-out: Ki Human Astrocytoma Cells (Substance P antagonist potency)) it was 240 nM; on NK1 [7], 950 to 2400 nM. The IC50 on NK3 amounted to 15200 nM; on NK2 receptor [3], 3400 ± 1300 nM; at NK1 [4], 300 nM; on NK1 [6], 600 ± 300 nM. Moreover, on NK1 [4] (ratio of IC50 values in human astrocytoma cells), the “Potency relative to ditryptophenaline” value is on record as “fortyfold”. Further, on NK1 [5], the “pA2, competitive inhibition of Substance P-induced contractility” value is 6.6±0.31.

Regarding `CN1C(=O)[C@@H]2C[C@@]3([C@@]45C[C@H]6C(=O)N(C)[C@@H](Cc7ccccc7)C(=O)N6[C@@H]4Nc4ccccc45)c4ccccc4N[C@H]3N2C(=O)[C@@H]1Cc1ccccc1` [ditryptophenaline, reference compound], the LD50 in data set [8] is listed as over 200 mg/kg. In addition, at NK1 [4], the IC50 worked out at 12000 nM.

Usually Ki stands for a measure of affinity in units of concentration, obtained from inhibition or displacement. By IC50 is commonly meant the midpoint of a concentration-inhibition curve. The term LD50 denotes the dose expected to kill half of the subjects tested.
